Legend:
Test in all cases: radiometric filter-binding kinase assay, Kinase HotSpot
Settings in all cases: compound 0.5 µM; ATP 10 µM
[1] = molecular target: SGK2 (human) (UniProt Q9HBY8)
[2] = molecular target: CDC42BPA (human) (UniProt Q5VT25)
[3] = molecular target: DSTYK (human) (UniProt Q6XUX3)
[4] = molecular target: CAMK2A (human) (UniProt Q9UQM7)
[5] = molecular target: PAK6 (human) (UniProt Q9NQU5)
[6] = molecular target: PRKCB1 (human) (UniProt P05771)
[7] = molecular target: EPHA1 (human) (UniProt P21709)
[8] = molecular target: YES1 (human) (UniProt P07947)
[9] = molecular target: STK10 (human) (UniProt O94804)
[10] = molecular target: ABL2 (human) (UniProt P42684)
[11] = molecular target: BMX (human) (UniProt P51813)
[12] = molecular target: IRAK4 (human) (UniProt Q9NWZ3)
[13] = molecular target: PRKCD (human) (UniProt Q05655)
[14] = molecular target: MATK (human) (UniProt P42679)
[15] = molecular target: TAOK3 (human) (UniProt Q9H2K8)
[16] = molecular target: NEK4 (human) (UniProt P51957)
Sequence of NEK4 (human) (P51957 whole entry, looked up): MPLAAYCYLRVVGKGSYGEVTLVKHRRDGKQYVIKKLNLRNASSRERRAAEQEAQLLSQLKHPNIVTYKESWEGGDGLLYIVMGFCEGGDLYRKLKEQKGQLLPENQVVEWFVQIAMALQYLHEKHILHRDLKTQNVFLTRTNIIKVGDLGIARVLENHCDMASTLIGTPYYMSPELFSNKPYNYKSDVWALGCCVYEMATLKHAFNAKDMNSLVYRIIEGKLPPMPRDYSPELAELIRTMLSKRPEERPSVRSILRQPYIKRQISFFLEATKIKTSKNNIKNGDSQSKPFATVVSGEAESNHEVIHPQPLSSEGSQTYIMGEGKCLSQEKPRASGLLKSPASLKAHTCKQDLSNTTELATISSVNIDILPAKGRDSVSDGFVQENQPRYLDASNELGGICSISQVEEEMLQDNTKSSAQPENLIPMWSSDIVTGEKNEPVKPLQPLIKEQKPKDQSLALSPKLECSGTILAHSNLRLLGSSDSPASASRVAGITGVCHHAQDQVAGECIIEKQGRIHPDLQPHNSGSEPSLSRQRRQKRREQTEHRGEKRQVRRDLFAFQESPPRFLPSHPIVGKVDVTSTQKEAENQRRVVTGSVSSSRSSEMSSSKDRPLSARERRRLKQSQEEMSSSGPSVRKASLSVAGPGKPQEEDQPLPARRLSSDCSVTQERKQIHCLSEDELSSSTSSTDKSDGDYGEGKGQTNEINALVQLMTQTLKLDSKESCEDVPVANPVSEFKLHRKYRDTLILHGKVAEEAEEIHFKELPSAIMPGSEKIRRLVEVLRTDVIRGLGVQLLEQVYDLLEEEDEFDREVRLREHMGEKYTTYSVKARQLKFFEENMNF

[17] = molecular target: FLT1 (human) (UniProt P17948)
[18] = molecular target: CSK (human) (UniProt P41240)
[19] = molecular target: GRK7 (human) (UniProt Q8WTQ7)
Sequence of GRK7 (human) (Q8WTQ7 whole entry, looked up): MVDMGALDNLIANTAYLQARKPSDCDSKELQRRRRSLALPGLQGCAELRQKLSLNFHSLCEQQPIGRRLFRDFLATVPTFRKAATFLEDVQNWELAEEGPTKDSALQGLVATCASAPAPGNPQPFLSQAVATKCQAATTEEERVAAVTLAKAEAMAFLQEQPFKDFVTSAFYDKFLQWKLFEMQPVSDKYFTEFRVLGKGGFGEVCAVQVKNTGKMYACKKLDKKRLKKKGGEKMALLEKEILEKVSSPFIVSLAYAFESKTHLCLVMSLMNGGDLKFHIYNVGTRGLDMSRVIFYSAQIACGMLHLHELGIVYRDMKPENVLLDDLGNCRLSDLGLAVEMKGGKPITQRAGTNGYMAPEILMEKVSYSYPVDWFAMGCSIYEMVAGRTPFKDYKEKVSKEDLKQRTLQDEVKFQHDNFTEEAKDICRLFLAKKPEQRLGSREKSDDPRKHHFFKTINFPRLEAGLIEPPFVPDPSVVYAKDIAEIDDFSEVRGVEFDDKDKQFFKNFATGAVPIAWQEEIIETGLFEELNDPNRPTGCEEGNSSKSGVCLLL

[20] = molecular target: MYLK (human) (UniProt Q15746)
[21] = molecular target: MARK4 (human) (UniProt Q96L34)
[22] = molecular target: ZAP70 (human) (UniProt P43403)
[23] = molecular target: SGK3 (human) (UniProt Q96BR1)
Sequence of SGK3 (human) (Q96BR1 whole entry, looked up): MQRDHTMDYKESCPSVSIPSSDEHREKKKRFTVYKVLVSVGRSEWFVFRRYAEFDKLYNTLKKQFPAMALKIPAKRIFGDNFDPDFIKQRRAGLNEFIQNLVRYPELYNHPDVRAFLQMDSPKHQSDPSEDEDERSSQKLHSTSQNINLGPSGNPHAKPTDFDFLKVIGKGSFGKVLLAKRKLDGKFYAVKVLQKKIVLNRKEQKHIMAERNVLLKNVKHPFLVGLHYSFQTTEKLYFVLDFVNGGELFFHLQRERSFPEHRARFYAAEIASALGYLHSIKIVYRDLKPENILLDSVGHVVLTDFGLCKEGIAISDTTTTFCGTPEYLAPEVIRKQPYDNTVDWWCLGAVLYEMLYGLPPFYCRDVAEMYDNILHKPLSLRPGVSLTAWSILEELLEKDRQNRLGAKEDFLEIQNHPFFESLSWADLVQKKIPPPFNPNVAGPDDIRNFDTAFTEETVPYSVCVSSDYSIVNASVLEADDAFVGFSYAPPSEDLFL

[24] = molecular target: PRKCG (human) (UniProt P05129)
[25] = molecular target: ADRBK1 (human) (UniProt P25098)
[26] = molecular target: PRKCI (human) (UniProt P41743)
[27] = molecular target: PRKCE (human) (UniProt Q02156)
Sequence of PRKCE (human) (Q02156 whole entry, looked up): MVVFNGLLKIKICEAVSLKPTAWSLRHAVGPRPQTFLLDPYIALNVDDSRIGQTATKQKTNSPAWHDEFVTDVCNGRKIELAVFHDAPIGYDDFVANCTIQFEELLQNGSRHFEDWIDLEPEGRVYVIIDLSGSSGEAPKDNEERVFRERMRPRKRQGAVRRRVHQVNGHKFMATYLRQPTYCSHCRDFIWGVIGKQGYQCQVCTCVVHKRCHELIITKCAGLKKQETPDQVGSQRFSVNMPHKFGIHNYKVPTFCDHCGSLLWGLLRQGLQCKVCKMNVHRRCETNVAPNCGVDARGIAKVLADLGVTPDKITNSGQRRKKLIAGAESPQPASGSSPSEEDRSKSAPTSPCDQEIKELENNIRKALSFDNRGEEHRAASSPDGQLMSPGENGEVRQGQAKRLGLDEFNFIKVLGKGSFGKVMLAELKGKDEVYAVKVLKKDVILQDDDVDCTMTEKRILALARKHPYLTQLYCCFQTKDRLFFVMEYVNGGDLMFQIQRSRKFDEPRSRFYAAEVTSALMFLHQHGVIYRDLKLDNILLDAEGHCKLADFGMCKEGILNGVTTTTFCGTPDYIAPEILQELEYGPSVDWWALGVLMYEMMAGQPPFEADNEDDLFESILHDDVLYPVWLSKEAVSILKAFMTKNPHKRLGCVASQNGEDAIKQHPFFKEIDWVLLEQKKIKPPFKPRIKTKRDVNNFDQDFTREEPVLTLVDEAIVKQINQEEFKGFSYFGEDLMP

[28] = molecular target: CDC42BPB (human) (UniProt Q9Y5S2)
[29] = molecular target: HIPK2 (human) (UniProt Q9H2X6)
[30] = molecular target: LRRK2 (human) (UniProt Q5S007)
[31] = molecular target: CAMKK1 (human) (UniProt Q8N5S9)
[32] = molecular target: FGR (human) (UniProt P09769)
[33] = molecular target: PLK3 (human) (UniProt Q9H4B4)
[34] = molecular target: MAP3K2 (human) (UniProt Q9Y2U5)
Sequence of MAP3K2 (human) (Q9Y2U5 whole entry, looked up): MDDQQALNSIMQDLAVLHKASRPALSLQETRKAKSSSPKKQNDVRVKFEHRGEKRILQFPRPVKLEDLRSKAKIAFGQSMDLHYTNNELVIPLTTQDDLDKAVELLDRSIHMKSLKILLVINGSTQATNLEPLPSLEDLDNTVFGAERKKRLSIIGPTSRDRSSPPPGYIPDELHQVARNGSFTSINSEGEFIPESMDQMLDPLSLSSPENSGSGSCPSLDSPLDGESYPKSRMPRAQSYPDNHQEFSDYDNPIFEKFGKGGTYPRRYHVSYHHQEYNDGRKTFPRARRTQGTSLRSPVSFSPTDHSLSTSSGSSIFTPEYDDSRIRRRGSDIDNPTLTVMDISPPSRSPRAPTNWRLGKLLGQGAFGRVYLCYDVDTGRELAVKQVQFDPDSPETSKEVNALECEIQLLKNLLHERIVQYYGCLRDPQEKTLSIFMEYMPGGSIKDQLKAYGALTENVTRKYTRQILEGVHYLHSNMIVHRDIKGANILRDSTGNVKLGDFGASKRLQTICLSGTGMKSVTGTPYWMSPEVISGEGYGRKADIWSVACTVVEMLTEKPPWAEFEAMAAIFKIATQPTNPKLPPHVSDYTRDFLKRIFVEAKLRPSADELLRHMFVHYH

[35] = molecular target: CDK9 CCNK (human) (UniProt O75909+P50750)
[36] = molecular target: CDK5 CDK5R1 p25 (human) (UniProt Q00535+Q15078)
[37] = molecular target: PAK4 (human) (UniProt O96013)
[38] = molecular target: MARK1 (human) (UniProt Q9P0L2)
[39] = molecular target: BTK (human) (UniProt Q06187)
[40] = molecular target: ADRBK2 (human) (UniProt P35626)
[41] = molecular target: ITK (human) (UniProt Q08881)
[42] = molecular target: MLTK (human) (UniProt Q9NYL2)
Sequence of MLTK (human) (Q9NYL2 whole entry, looked up): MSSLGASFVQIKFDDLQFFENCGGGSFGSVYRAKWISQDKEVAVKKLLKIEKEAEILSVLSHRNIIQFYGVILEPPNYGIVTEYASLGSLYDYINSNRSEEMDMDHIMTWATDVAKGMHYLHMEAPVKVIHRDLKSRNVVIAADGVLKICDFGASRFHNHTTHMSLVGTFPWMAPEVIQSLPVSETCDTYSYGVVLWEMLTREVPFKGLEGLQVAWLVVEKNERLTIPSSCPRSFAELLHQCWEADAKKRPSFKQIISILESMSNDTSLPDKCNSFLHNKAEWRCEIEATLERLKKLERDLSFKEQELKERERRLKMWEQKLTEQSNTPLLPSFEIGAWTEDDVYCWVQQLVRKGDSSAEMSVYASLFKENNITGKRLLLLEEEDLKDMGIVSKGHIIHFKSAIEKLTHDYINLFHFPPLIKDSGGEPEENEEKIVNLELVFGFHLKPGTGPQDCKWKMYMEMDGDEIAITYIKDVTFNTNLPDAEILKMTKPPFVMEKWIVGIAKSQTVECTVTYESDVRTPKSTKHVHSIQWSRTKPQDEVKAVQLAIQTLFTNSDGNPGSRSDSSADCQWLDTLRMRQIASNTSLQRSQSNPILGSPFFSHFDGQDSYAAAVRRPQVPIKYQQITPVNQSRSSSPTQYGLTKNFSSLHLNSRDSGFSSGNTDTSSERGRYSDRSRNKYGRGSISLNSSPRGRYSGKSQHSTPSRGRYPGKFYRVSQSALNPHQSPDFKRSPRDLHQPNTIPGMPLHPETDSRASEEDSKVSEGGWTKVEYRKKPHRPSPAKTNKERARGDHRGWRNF

Sequence of PAK6 (human) (Q9NQU5 whole entry, looked up): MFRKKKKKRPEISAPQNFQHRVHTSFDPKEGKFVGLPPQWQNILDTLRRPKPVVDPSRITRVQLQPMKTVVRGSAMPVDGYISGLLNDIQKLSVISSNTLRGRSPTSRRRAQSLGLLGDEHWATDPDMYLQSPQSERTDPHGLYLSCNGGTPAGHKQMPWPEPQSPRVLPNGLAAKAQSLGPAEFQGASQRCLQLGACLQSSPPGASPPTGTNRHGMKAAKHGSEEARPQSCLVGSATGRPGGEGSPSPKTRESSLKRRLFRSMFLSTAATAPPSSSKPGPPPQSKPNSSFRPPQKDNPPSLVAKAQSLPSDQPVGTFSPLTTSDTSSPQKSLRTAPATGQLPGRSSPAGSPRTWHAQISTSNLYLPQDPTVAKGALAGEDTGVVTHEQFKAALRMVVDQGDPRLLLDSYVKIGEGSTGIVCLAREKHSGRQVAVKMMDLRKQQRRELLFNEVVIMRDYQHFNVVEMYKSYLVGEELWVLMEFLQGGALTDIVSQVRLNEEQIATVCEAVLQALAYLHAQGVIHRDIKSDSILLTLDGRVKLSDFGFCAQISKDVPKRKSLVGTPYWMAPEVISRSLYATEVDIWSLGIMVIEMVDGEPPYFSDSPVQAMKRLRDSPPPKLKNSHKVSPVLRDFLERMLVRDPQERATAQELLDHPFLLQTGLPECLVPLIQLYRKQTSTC

## O=C1Nc2ccc(Br)cc2/C1=C\c1cc2c([nH]1)CCCC2
[1]
  residual activity: 101%
[2]
  residual activity: 81.9%
[3]
  residual activity: 93.1%
[4]
  residual activity: 93.3%
[5]
  residual activity: 89.8%
[6]
  residual activity: 97.4%
[7]
  residual activity: 93.1%
[8]
  residual activity: 67.2%
[9]
  residual activity: 65.5%
[10]
  residual activity: 82.6%
[11]
  residual activity: 89.9%
[12]
  residual activity: 67.2%
[13]
  residual activity: 95.6%
[14]
  residual activity: 94.2%
[15]
  residual activity: 75.3%
[16]
  residual activity: 80.5%
[17]
  residual activity: 73.4%
[18]
  residual activity: 98.5%
[19]
  residual activity: 85.2%
[20]
  residual activity: 95.7%
[21]
  residual activity: 82.9%
[22]
  residual activity: 93.9%
[23]
  residual activity: 97.6%
[24]
  residual activity: 100%
[25]
  residual activity: 105%
[26]
  residual activity: 92%
[27]
  residual activity: 99.1%
[28]
  residual activity: 114%
[29]
  residual activity: 91%
[30]
  residual activity: 7.03%
[31]
  residual activity: 69.6%
[32]
  residual activity: 67.7%
[33]
  residual activity: 97.8%
[34]
  residual activity: 93.6%
[35]
  residual activity: 96.7%
[36]
  residual activity: 91.3%
[37]
  residual activity: 76.8%
[38]
  residual activity: 69%
[39]
  residual activity: 90.5%
[40]
  residual activity: 89.9%
[41]
  residual activity: 87.5%
[42]
  residual activity: 87.7%

## O=C1c2ccccc2-c2nc3nnnn3nc21
[1]
  residual activity: 75.1%
[2]
  residual activity: 91.6%
[3]
  residual activity: 81.5%
[4]
  residual activity: 84.7%
[5]
  residual activity: 108%
[6]
  residual activity: 83.1%
[7]
  residual activity: 73.1%
[8]
  residual activity: 89.1%
[9]
  residual activity: 84.3%
[10]
  residual activity: 89.7%
[11]
  residual activity: 79%
[12]
  residual activity: 96.9%
[13]
  residual activity: 102%
[14]
  residual activity: 99.7%
[15]
  residual activity: 90.8%
[16]
  residual activity: 96.1%
[17]
  residual activity: 3.06%
[18]
  residual activity: 84.8%
[19]
  residual activity: 78.1%
[20]
  residual activity: 94.1%
[21]
  residual activity: 88.1%
[22]
  residual activity: 68.2%
[23]
  residual activity: 90.4%
[24]
  residual activity: 59.3%
[25]
  residual activity: 106%
[26]
  residual activity: 85.7%
[27]
  residual activity: 99%
[28]
  residual activity: 82.6%
[29]
  residual activity: 107%
[30]
  residual activity: 85.6%
[31]
  residual activity: 74.9%
[32]
  residual activity: 79.8%
[33]
  residual activity: 28.5%
[34]
  residual activity: 83%
[35]
  residual activity: 74.4%
[36]
  residual activity: 46.4%
[37]
  residual activity: 91.4%
[38]
  residual activity: 98.2%
[39]
  residual activity: 90.6%
[40]
  residual activity: 106%
[41]
  residual activity: 71.5%
[42]
  residual activity: 69.8%

## Cc1nc(-c2ccccc2)c(-c2ccncc2)o1
[1]
  residual activity: 105%
[2]
  residual activity: 91.9%
[3]
  residual activity: 91%
[4]
  residual activity: 104%
[5]
  residual activity: 103%
[6]
  residual activity: 95.2%
[7]
  residual activity: 93.8%
[8]
  residual activity: 101%
[9]
  residual activity: 96.9%
[10]
  residual activity: 92.8%
[11]
  residual activity: 102%
[12]
  residual activity: 107%
[13]
  residual activity: 96.2%
[14]
  residual activity: 90.3%
[15]
  residual activity: 99%
[16]
  residual activity: 100%
[17]
  residual activity: 79.4%
[18]
  residual activity: 107%
[19]
  residual activity: 98.3%
[20]
  residual activity: 101%
[21]
  residual activity: 103%
[22]
  residual activity: 98.8%
[23]
  residual activity: 96.4%
[24]
  residual activity: 101%
[25]
  residual activity: 100%
[26]
  residual activity: 101%
[27]
  residual activity: 103%
[28]
  residual activity: 101%
[29]
  residual activity: 95.5%
[30]
  residual activity: 96.8%
[31]
  residual activity: 123%
[32]
  residual activity: 89.7%
[33]
  residual activity: 95.4%
[34]
  residual activity: 102%
[35]
  residual activity: 101%
[36]
  residual activity: 97%
[37]
  residual activity: 101%
[38]
  residual activity: 92.5%
[39]
  residual activity: 98.3%
[40]
  residual activity: 101%
[41]
  residual activity: 97.1%
[42]
  residual activity: 89%

Source: the kinase profiling compilation of Christmann-Franck et al. (2016)
